d = 2'-deoxy (DNA); r = 2'-OH (RNA)

One data set deals with MG63 cells. In words: Fluorescence / confocal microscopy of cellular distribution in MG63 cells. It is filed as cell-based, human. To be noted: fluorescently labelled, transfection reagent free. How it is done:
Cellular uptake experiments were performed by plating cells (1×10^4) in an 8 well chamber slide. At 70% confluency, the cells were transfected with 50 nM Cy3-cpRNA and incubated at 37° C. for 24 h. Control wells were left untreated. Each transfection was performed in triplicate. […] The slides were mounted using Vectashield mounting medium containing 4′, 6-diamidino-2-phenylindole (DAPI) (Vector Labs, Burlingame, Calif.) to stain the nuclei of cells.
MG63—human osteosarcoma cells were cultured in α-MEM (Sigma-Aldrich, Haverhill, UK) medium containing 10% FBS, 1% L-Glutamine, and 1% antibiotics (PeSt) at 37° C. with 5% CO2. One day prior to the siRNA treatment, 35,000 cells were plated per each well of a 24-well plate. On the experiment day, cells were replaced with 10% heat inactivated-FBS containing α-MEM medium with 1% L-Glutamine, and 1% antibiotics (PeSt). Fluorescently (Cy3) labelled CP-siRNA and nicked CP-siRNA having GAPDH targeting sequence (final concentration: 50 nM) was given to the each well. After 24 hours the cells were washed with PBS and fixed with 4% formaldehyde for 20 mins at room temperature and then washed twice with PBS. DAPI (1 ug/ml in PBS) was added to cells for 5 mins and then washed with PBS. The cells were then visualized in Nikon TiU at 20×+1.5× and analysed with the Nikon Imaging software.

Data set [1] has as its system 3p or 5p miR34a target-site in 3′ UTR of Renilla luciferase. In words: Dual glo assay of miR34a strand selection in HCT116 cells. It is filed as cell-based, human. As to conditions: 50 nM miRNA, 300 ng plasmid, RNAiMAX, 24 h. The procedure: For all experiments RNAiMAX was used for transfection of both plasmid and miRNA in accordance with manufacturer's instructions, but with altered RNA and plasmid concentrations. For Dual glo assay, cells were co-transfected with 50 nM miRNA and 300 ng plasmid. For qPCR cells were transfected with 100 nM miRNA.
HCT116 cells were seeded 10000 cells per well in a 96 well plate and transfected with both plasmid and miRNA 24 hours later. All transfections were performed in triplicates. The plasmids used were the dual luciferase reporter plasmid with either a 3p or 5p miR34a target-site cloned into the 3′ UTR (denoted plasmid 3 or plasmid 5). After 24 hours 75 μl of Dual glo firefly substrate (Promega) was added to each well. 100 μl of cell-lysate was moved to a microtiter plate after 10 minutes of incubation and luminescence was measured and it was followed by addition of 75 μl of Stop glo Renilla substrate (Promega) to the same plate and luminescence was measured again after 10 minutes of incubation. The Renilla luminescence values were normalized against the firefly luminescence values and expressed as a percentage of the negative control, a scrambled non-functional miRNA.
Dual glo assay and RT-qPCR were performed to identify the degree of strand selection of the modified miRNA. First, we designed two different plasmids (psiCheck2 vector) such that miRNA target-sequence (3p or 5p) is cloned into the 3′-UTR of the Renilla luciferase gene (see FIG. 16) with firefly luciferase as the internal control to normalize the Renilla luciferase expression. We estimated the levels of the individual strand recruitment (3p or 5p) using the dual-glo luminesce assay. The target-sequence corresponds exactly to either the 3p or 5p strands, and a change in luminescence can be directly attributed to the gene silencing efficiency.
Four independent trials of dual glo assay were performed, with each of the samples in triplicates. Luminescence is shown as a percentage of the scrambled miRNA which serves as the negative control. Two different modifications were used on each of the strands of the miR34a (see Table 5). The miR34a was modified to make the 5p strand the guide strand by incorporating three deoxy thymidine residues at the 3′ end of the 3p strand (mod5a).

A further data set has as its system Ctnnb1 (β-Catenin). In words: Ctnnb1 expression in MC3T3-E1 cells by quantitative RT-PCR. It is filed as cell-based, mouse. How it is done:
MC3T3-E1 cells were cultured in α-MEM (Sigma-Aldrich, Haverhill, UK) medium containing 10% FBS, 1% L-Glutamine, and 1% antibiotics (PeSt) at 37° C. with 5% CO2. One day prior to the miRNA treatment, 35,000 cells were plated per each well of a 24-well plate. On the experiment day, cells were replaced with 2% heat inactivated-FBS containing α-MEM medium with 1% L-Glutamine, and 1% antibiotics (PeSt). miR-34a-CP (final concentration: 50 nM) was given to the each well. Mirvana scrambled miRNA mimic was used as a negative control.
After 24 hours of transfection, and incubation, RNA extraction was performed by using miRCURY RNA Isolation Kit—Cell and Plant (#300100) and protocol from Exiqon, Vedbæk, Denmark. RNA samples were treated with DNase for 30 minutes at 37 degrees, thereafter inactivated with a DNase inactivation solution (TUTRBO DNase AM2238 thermofisher). Thereafter, RNA concentrations were measured using NanoDrop ND-1000 from NanoDrop Technologies, Wilmington, Del.
The cDNA was made from the total RNA using High Capacity cDNA reverse transcription kit (Applied Biosystems, USA). Reactions were performed on a 96-well Bio-Rad Thermal Cycler PCR System at 37° C. for 60 minutes, and at 95° C. for 5 min respectively. Real-time PCR reactions were performed as follows: 10 μl of 2×TaqMan® Universal PCR Master Mix, no AmpErase® UNG (Applied Biosystems, USA), 9 μl 1:5 diluted cDNA, and 1 μl of TaqMan gene specific assay mix. Final volume of the reaction mix was 20 uL. Internal control gene beta-actin (ACTB) (Applied Biosystems, USA) was selected as control for normalization of TaqMan data. The qRT-PCR reaction comprised a non-template control of cDNA in order to rule out any non-specific reading. Taqman probes for Ctnnb1, Sox9, Actb, were obtained from Applied Biosystems. The qRT-PCR amplification was carried out using the Bio-Rad qRT-PCR Thermocycler.
In order to achieve the transfection reagent free delivery of therapeutically potential microRNAs, we tested miR-34a and compared with miR-34a-CP. Since microRNAs unlike siRNAs have multiple targets in the cell, and there is a necessity to reduce the off-target and undesirable effects if any, we have also designed siRNA model siR-34a-CP as stated above. We have used mouse preosteoblast cell line MC3T3-E1 obtained from calvarial bone for the in-vitro functional validation of cell-penetrating molecules. On the day before transfection experiment, 35000 MC3T3-E1 cells were cultured per each well of the 24-well culture plate in alpha-Minimum Essential Medium with 10% heat inactivated FBS, 1% L-Glutamine, 1% antibiotics (Pe/St). […] 5% CO2. Thereafter, RNA extraction, cDNA preparation, and quantitative real-time PCR was performed by using TaqMan procedure.

As to “CP-siRNA: GAPDH CP-siRNA, sense SEQ ID NO: 26 with dT5, antisense SEQ ID NO: 27; Cy3 labelled for imaging (sense CCGAGCCACAUCGCUCAGATTTTT; antisense UCUGAGCGAUGUGGCUCGGTT; sense: sugars from the 5' end r19 d5, backbone not given here; antisense: sugars from the 5' end r19 d2, backbone not given here; Cy3 label)”, in the data set on MG63 cells, the cellular distribution result was “perinuclear distribution”.
Turning to “mod3a: miR34a with three deoxy thymidines added to 3′ end of 5p strand, SEQ ID NO: 20 and 35 (chain 1 CAAUCAGCAAGUAUACUGCCCU; chain 2 UGGCAGUGUCUUAGCUGGUUGUTTT; chain 1: RNA, backbone not given here; chain 2: sugars from the 5' end r22 d3, backbone not given here)”, in data set [1], the “strand selection (Dual glo luminescence)” value is given as “slight increase in strand selection but this was not statistically significant”.
Same read-out and setting: next, “mod3b: miR34a with five deoxy thymidines added to 3′ end of 5p strand, SEQ ID NO: 20 and 36 (chain 1 CAAUCAGCAAGUAUACUGCCCU; chain 2 UGGCAGUGUCUUAGCUGGUUGUTTTTT; chain 1: RNA, backbone not given here; chain 2: sugars from the 5' end r22 d5, backbone not given here)”: “slight increase in strand selection but this was not statistically significant”; “mod5a: miR34a with three deoxy thymidines added to 3′ end of 3p strand, SEQ ID NO: 37 and 21 (chain 1 CAAUCAGCAAGUAUACUGCCCUTTT; chain 2 UGGCAGUGUCUUAGCUGGUUGU; chain 1: sugars from the 5' end r22 d3, backbone not given here; chain 2: RNA, backbone not given here)”: 3p strand being less chosen as the guide strand.
For the substance “mod5b: miR34a with five deoxy thymidines added to 3′ end of 3p strand, SEQ ID NO: 38 and 21 (chain 1 CAAUCAGCAAGUAUACUGCCCUTTTTT; chain 2 UGGCAGUGUCUUAGCUGGUUGU; chain 1: sugars from the 5' end r22 d5, backbone not given here; chain 2: RNA, backbone not given here)”, the “strand selection (Dual glo luminescence)” value in data set [1] is 3p strand being less chosen as the guide strand.
For “nicked CP-siRNA: Nicked GAPDH CP-siRNA, sense SEQ ID NO: 28, nicked antisense sequences a and b SEQ ID NO: 29 and 30 (sense CCGAGCCACAUCGCUCAGATTTTT; antisense 1 UCUGAGCGAU; antisense 2 GUGGCUCGG; sense: sugars from the 5' end r19 d5, backbone not given here; antisense 1: RNA, backbone not given here; antisense 2: RNA, backbone not given here; further chemistry not fully specified)”, the cellular distribution result with MG63 cells is given as “some nuclear localization”.
For “siR-34a-CP: Cell penetrating siRNA analog of miR-34a, sense SEQ ID NO: 24 with dA5, antisense SEQ ID NO: 25 (sense AAUCAGCUAAGUAUACUGCCAAAAAA; antisense UGGCAGUGUACUUAGCUGGUUGU; sense: sugars from the 5' end r21 d5, backbone not given here; antisense: RNA, backbone not given here)”, the Ctnnb1 expression entry in the data set with Ctnnb1 (β-Catenin) (50 nM, 24 h, alone without transfection reagent (FIG. 11)) is listed as “up regulation of Ctnnb1”; with Ctnnb1 (β-Catenin) (without transfection reagent MaTra (FIG. 12)) it was “up regulation of Ctnnb1”.

For the origin of these results see patent US20180265867A1, “NUCLEIC ACID MOLECULES WITH ENHANCED ACTIVITY” (priority 2015, published 2018).
